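Protocol summary: plate cells (96-well), add compound at 5 concentrations, incubate 48 h, interpolate endpoints linearly. At the TGI there is no net growth.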
Tests used:
Assay in all cases: NCI-60 cell line screen, 48 h
786-0 renal = tested on: 786-0 renal
A549 NSCLC = tested on: A549 NSCLC
ACHN renal = tested on: ACHN renal
BT-549 breast = tested on: BT-549 breast
CAKI-1 renal = tested on: CAKI-1 renal
CCRF-CEM leukemia = tested on: CCRF-CEM leukemia
COLO 205 colon = tested on: COLO 205 colon
DU-145 prostate = tested on: DU-145 prostate
EKVX NSCLC = tested on: EKVX NSCLC
HCC-2998 colon = tested on: HCC-2998 colon
HCT-116 colon = tested on: HCT-116 colon
HCT-15 colon = tested on: HCT-15 colon
HL-60(TB) leukemia = tested on: HL-60(TB) leukemia
HOP-92 NSCLC = tested on: HOP-92 NSCLC
HS 578T breast = tested on: HS 578T breast
HT29 colon = tested on: HT29 colon
K-562 leukemia = tested on: K-562 leukemia
KM12 colon = tested on: KM12 colon
M14 melanoma = tested on: M14 melanoma
MALME-3M melanoma = tested on: MALME-3M melanoma
MCF7 breast = tested on: MCF7 breast
MDA-MB-231 breast = tested on: MDA-MB-231 breast
MDA-MB-435 = tested on: MDA-MB-435
MDA-N = tested on: MDA-N
MOLT-4 leukemia = tested on: MOLT-4 leukemia
NCI-H226 lung = tested on: NCI-H226 lung
NCI-H23 lung = tested on: NCI-H23 lung
NCI-H460 lung = tested on: NCI-H460 lung
NCI-H522 lung = tested on: NCI-H522 lung
NCI/ADR-RES ovarian = tested on: NCI/ADR-RES ovarian
OVCAR-3 ovarian = tested on: OVCAR-3 ovarian
OVCAR-4 ovarian = tested on: OVCAR-4 ovarian
OVCAR-5 ovarian = tested on: OVCAR-5 ovarian
OVCAR-8 ovarian = tested on: OVCAR-8 ovarian
PC-3 prostate = tested on: PC-3 prostate
RXF 393 renal = tested on: RXF 393 renal
SF-268 CNS = tested on: SF-268 CNS
SF-295 CNS = tested on: SF-295 CNS
SF-539 CNS = tested on: SF-539 CNS
SK-MEL-2 melanoma = tested on: SK-MEL-2 melanoma
SK-MEL-28 melanoma = tested on: SK-MEL-28 melanoma
SK-MEL-5 melanoma = tested on: SK-MEL-5 melanoma
SK-OV-3 ovarian = tested on: SK-OV-3 ovarian
SN12C renal = tested on: SN12C renal
SNB-19 CNS = tested on: SNB-19 CNS
SNB-75 CNS = tested on: SNB-75 CNS
SR leukemia = tested on: SR leukemia
SW-620 colon = tested on: SW-620 colon
T-47D breast = tested on: T-47D breast
TK-10 renal = tested on: TK-10 renal
U251 CNS = tested on: U251 CNS
UACC-257 melanoma = tested on: UACC-257 melanoma
UACC-62 melanoma = tested on: UACC-62 melanoma
UO-31 renal = tested on: UO-31 renal

In the case of `CCOc1ccc2nc(NC(NC(=O)c3cccnc3)(C(F)(F)F)C(F)(F)F)sc2c1`, the TGI (786-0 renal) is reported as 94.3 µM, the TGI (A549 NSCLC) is reported as over 100 µM and the TGI (ACHN renal) is reported as over 100 µM. The TGI (BT-549 breast) was over 100 µM, the TGI (CAKI-1 renal) was over 100 µM and the TGI (CCRF-CEM leukemia) was 67.9 µM. The TGI (COLO 205 colon) was over 100 µM, the TGI (DU-145 prostate) was over 100 µM and the TGI (EKVX NSCLC) was 79.4 µM. It also gave a TGI (HCC-2998 colon) of 84.3 µM, a TGI (HCT-116 colon) of over 100 µM and a TGI (HCT-15 colon) of over 100 µM. The TGI (HL-60(TB) leukemia) was 94.8 µM, the TGI (HOP-92 NSCLC) was 80.6 µM and the TGI (HS 578T breast) was over 100 µM. The TGI (HT29 colon) was 30.5 µM, the TGI (K-562 leukemia) was over 100 µM and the TGI (KM12 colon) was over 100 µM. The TGI (M14 melanoma) was over 100 µM, the TGI (MALME-3M melanoma) was over 100 µM and the TGI (MCF7 breast) was 91.4 µM. For the same compound, the TGI (MDA-MB-231 breast) was over 100 µM, the TGI (MDA-MB-435) was 65.4 µM and the TGI (MDA-N) was 42.9 µM. It also gave a TGI (MOLT-4 leukemia) of 55.5 µM, a TGI (NCI-H226 lung) of over 100 µM and a TGI (NCI-H23 lung) of 65.5 µM. For the same compound, the TGI (NCI-H460 lung) was over 100 µM, the TGI (NCI-H522 lung) was 84.2 µM and the TGI (NCI/ADR-RES ovarian) was 93.3 µM. It also gave a TGI (OVCAR-3 ovarian) of over 100 µM, a TGI (OVCAR-4 ovarian) of over 100 µM and a TGI (OVCAR-5 ovarian) of over 100 µM. It also gave a TGI (OVCAR-8 ovarian) of 88 µM, a TGI (PC-3 prostate) of 78.6 µM and a TGI (RXF 393 renal) of 61.1 µM. For the same compound, the TGI (SF-268 CNS) was over 100 µM, the TGI (SF-295 CNS) was over 100 µM and the TGI (SF-539 CNS) was over 100 µM. The TGI (SK-MEL-2 melanoma) was over 100 µM, the TGI (SK-MEL-28 melanoma) was over 100 µM and the TGI (SK-MEL-5 melanoma) was 49.2 µM. It also gave a TGI (SK-OV-3 ovarian) of over 100 µM, a TGI (SN12C renal) of over 100 µM and a TGI (SNB-19 CNS) of over 100 µM. The TGI (SNB-75 CNS) was 68.2 µM, the TGI (SR leukemia) was over 100 µM and the TGI (SW-620 colon) was over 100 µM. It also gave a TGI (T-47D breast) of 58.4 µM, a TGI (TK-10 renal) of over 100 µM and a TGI (U251 CNS) of over 100 µM. The TGI (UACC-257 melanoma) was 69.4 µM, the TGI (UACC-62 melanoma) was 91.6 µM and the TGI (UO-31 renal) was over 100 µM.
